For data set [1], the target named is T1, PDE VIII (Mus musculus, UniProt O88502).
T1 construct: host or cells: heterologously expressed
T1 sequence (O88502 1-823): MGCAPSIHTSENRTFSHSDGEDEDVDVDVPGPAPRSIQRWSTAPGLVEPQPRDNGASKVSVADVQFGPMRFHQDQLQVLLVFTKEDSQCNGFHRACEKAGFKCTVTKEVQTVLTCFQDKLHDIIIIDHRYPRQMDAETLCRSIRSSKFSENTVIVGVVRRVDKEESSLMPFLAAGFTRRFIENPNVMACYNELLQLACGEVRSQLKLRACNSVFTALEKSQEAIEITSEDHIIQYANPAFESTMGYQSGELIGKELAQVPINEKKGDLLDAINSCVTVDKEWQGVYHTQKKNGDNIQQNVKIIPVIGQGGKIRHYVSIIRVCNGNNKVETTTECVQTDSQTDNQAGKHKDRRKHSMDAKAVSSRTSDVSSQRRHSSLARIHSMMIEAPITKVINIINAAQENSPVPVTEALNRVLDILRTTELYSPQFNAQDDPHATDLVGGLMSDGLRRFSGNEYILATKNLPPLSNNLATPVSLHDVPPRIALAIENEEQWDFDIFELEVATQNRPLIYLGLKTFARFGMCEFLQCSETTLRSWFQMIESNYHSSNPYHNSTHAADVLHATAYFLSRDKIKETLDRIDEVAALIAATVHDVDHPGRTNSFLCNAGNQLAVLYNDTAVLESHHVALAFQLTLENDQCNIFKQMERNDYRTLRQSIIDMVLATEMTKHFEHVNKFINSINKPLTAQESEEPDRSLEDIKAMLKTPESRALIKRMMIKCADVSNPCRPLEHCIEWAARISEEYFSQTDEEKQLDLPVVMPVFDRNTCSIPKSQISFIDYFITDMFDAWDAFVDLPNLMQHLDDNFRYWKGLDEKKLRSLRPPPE
As to conditions: cited from earlier work.

Data set [2] has as its target T2, PDE II (Homo sapiens, UniProt O00408).
T2 construct: host or cells: heterologously expressed human PDE; human heart
As to conditions: read-out: IC50, PDE II; cited from earlier work.

Data set [3] concerns the target T3, PDE VII (UniProt Q9QXQ1).
T3 sequence (Q9QXQ1 1-446): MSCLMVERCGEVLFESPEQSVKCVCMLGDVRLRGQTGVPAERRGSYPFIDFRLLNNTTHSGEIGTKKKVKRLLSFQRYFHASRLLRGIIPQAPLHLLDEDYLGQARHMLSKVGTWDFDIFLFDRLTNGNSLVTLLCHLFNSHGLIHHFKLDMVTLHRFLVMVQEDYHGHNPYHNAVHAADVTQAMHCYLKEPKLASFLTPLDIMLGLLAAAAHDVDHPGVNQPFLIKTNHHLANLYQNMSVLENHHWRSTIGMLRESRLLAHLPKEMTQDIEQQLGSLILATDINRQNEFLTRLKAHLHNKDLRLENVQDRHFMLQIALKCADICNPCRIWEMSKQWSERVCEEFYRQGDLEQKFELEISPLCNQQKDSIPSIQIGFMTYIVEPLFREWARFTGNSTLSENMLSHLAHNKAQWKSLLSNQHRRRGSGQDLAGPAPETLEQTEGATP
As to conditions: cited from earlier work.

Data set [4] has as its target PDE V (UniProt O76074). Conditions: cited from earlier work.
Data set [5] relates to PDE activity in HEK-293 cells. Kind of data set: Effect and in vivo KI of PDE inhibitors on forskolin-induced Ca2+ influx through CNG channels. Conditions: for effect on forskolin-induced Ca2+ influx: 1 μM forskolin, IBMX 10 or 100 μM, RO-20-1724 10 μM; for time to complete equilibration across the plasma membrane of HEK-293 cells: human, pH 7.4. As for the experimental part:
Next, experiments were conducted to pharmacologically identify the PDE type(s) that regulates cAMP levels near CNG channels. The C460W/E583M channels were used to monitor forskolin-stimulated cAMP accumulation in the presence and absence of a series of PDE inhibitors. […] In these experiments, inhibitor concentrations were used at which specific PDE types should be inhibited.
This required developing a quantitative framework to assess the relationship between cAMP synthesis, hydrolysis, and redistribution throughout the cell. Thus, the following formalism was adopted:
[formula] where C is the steady-state rate of cAMP synthesis by AC, Vmax is the maximal rate of cAMP hydrolysis, Km is the Michaelis constant for PDE, and kf is the rate constant of cAMP flux out of the microdomain. In order to estimate KI for the PDE inhibitors two assumptions were made. First, it was assumed that at low levels of AC stimulation and PDE inhibition, the concentration of local cAMP is low and diffusion of cAMP out of the microdomain is negligible. Second, the assumption was made that cAMP levels reach steady-state shortly after AC stimulation (i.e., equal rates of synthesis and hydrolysis). With these assumptions, Eq. 4 can be simplified to:
[formula] […] At low cAMP concentrations (<K1/2 for the channel), the cAMP concentration is proportional to the square root of the Ca^2+ influx rate (the Hill coefficient for channel activation is approximately 2). Thus, KI, can be estimated using a linear fit to the square root of the slopes of the fluorescence traces as a function of inhibitor concentration (See, FIG. 11).
Increases in local cAMP concentration activate CNG channels and trigger Ca^2+ entry. Ca^2+ influx was monitored in cell populations using the fluorescent indicator fura-2.
Additions were made by pipetting stock solutions into a stirred cuvette. The solutions were then assayed using an LS-50B spectrofluorimeter (Perkin Elmer). […]
Fluorescence was measured at an excitation wavelength of 380 nm and an emission wavelength of 510 nm. […] The MATLAB software package (MathWorks) was used for curve fitting and simulations.
The C460W/E583M channels were used to monitor forskolin-stimulated cAMP accumulation in the presence and absence of a series of PDE inhibitors. […] In these experiments, inhibitor concentrations were used at which specific PDE types should be inhibited.
[formula] where C is the steady-state rate of cAMP synthesis by AC, Vmax is the maximal rate of cAMP hydrolysis, Km is the Michaelis constant for PDE, and kf is the rate constant of cAMP flux out of the microdomain. In order to estimate KI for the PDE inhibitors, two assumptions were made.

[6] abbreviates: C460W/E583M channels, 0.5 μM forskolin, n=4.
The mark [7] stands for this setting: FIG. 11, the experiments shown, C460W/E583M channels, 0.5 μM forskolin.

By IC50 is commonly meant the concentration that inhibits the measured activity by half. What is called Ki is a dissociation constant, usually derived from enzyme kinetics or from competition with a known ligand. Read a low Ki as higher affinity.

Entries after “also recorded” stand apart in the source; their conditions may differ.

T2 sequence (O00408 whole entry): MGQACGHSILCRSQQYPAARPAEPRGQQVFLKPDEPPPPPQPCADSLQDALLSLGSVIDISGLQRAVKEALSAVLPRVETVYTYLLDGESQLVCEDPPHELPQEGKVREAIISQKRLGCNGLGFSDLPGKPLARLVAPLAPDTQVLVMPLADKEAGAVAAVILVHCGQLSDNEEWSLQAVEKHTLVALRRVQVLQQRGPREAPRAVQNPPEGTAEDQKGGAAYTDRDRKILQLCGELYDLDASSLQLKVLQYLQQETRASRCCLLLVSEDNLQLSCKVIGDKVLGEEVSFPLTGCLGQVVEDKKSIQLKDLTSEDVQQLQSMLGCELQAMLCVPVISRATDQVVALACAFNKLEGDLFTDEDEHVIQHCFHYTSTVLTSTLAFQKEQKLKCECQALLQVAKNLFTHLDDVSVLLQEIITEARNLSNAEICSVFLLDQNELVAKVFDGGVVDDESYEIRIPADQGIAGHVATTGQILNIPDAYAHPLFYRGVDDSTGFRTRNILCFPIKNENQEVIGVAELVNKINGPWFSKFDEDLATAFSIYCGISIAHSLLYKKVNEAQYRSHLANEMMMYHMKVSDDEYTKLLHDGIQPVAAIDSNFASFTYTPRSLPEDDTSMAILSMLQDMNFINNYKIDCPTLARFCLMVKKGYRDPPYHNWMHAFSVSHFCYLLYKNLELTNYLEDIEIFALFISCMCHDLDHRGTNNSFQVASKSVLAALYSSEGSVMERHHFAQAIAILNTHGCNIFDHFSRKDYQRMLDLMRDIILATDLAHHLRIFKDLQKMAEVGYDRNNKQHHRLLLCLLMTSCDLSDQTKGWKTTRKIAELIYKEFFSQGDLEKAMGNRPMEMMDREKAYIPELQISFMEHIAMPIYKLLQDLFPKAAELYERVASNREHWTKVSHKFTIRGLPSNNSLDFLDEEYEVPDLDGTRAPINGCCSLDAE

Consider `CCCCCC[C@@H]([C@@H](C)O)n1cnc2c(N)ncnc21` (racemic) [EHNA], for which the IC50 in data set [1] was greater than 100 µM; in data set [2], 0.5 to 1 µM; in data set [3], greater than 100 µM; in data set [4], greater than 500 µM.

As for `CC(C)Cn1c(=O)n(C)c(=O)c2[nH]cnc21` [IBMX, 3-isobutyl-1-methylxanthine], the IC50 in data set [1] is greater than 200 µM; in data set [2], 20 to 50 µM; in data set [3], 2 to 8 µM; in data set [4] it was 4 to 7 µM. Further, the results for the Ki in data set [5] (setting [6]) and in data set [5] (setting [7]) were 11 ± 2 µM and 10 µM, respectively. In addition, the “effect on forskolin-induced Ca2+ influx” value in data set [5] (C460W/E583M channels) is reported as “significant forskolin-induced Ca^2+ influx was observed; also recorded: influenced the time course of forskolin-induced Ca^2+ influx”. Further, the “time to complete equilibration across the plasma membrane of HEK-293 cells” value in data set [5] is on record as less than 180 s.

Consider `CCCCOc1cc(CC2CNC(=O)N2)ccc1OC` (stereo not shown) [RO-20-1724, 4-(3-butoxy-4-methoxybenzyl)-2-imidazolidinone], for which the concentration for half-maximal inhibition (IC50) in data set [1] was greater than 200 µM; in data set [2] it was greater than 100 µM; in data set [3], greater than 200 µM; in data set [4], 250 µM. Besides, the inhibition constant Ki in data set [5] (setting [6]) was 0.13 ± 0.02 µM; in data set [5] (setting [7]), 0.14 µM; in data set [5] (Δ61-90/C460W/E583M channels, n=3), 0.15 ± 0.02 µM. In addition, in data set [5] (C460W/E583M channels), the “effect on forskolin-induced Ca2+ influx” value is “significant forskolin-induced Ca^2+ influx was observed; also recorded: influenced the time course of forskolin-induced Ca^2+ influx”. The “time to complete equilibration across the plasma membrane of HEK-293 cells” value in data set [5] is reported as less than 180 s.

Take `COc1ccc(C2CNC(=O)C2)cc1OC1CCCC1` (stereo not shown) [Rolipram]: the values for the IC50 in data set [1], in data set [2] and in data set [3] were greater than 200 µM, greater than 100 µM and greater than 100 µM, respectively. Moreover, the “slope of ΔF/F0” value in data set [5] (50 nM rolipram at 0 s, 0.5 μM forskolin at 180 s, C460W/E583M channels) was 0.00062 s⁻¹. In addition, the Ki in data set [5] (setting [6]) was found to be 0.07 ± 0.02 µM; in data set [5] (setting [7]), 0.09 µM. Besides, the “effect on forskolin-induced Ca2+ influx” value in data set [5] (C460W/E583M channels) was “significantly increased the forskolin-induced Ca^2+ influx”.

Source of the values: patent publication US7341836B2, “Modified cyclic nucleotide gated ion channels” (The Regents of the University of Colorado, priority 2001, dated 2008).
